One may read the CC50 as the concentration giving 50% cytotoxicity. Higher therefore signals lower toxicity to the cells. For orientation: IC50 means the midpoint of a concentration-inhibition curve.

Consider one molecule from publication PMC7615677 (Science translational medicine, 2023).

SMILES strings stand for the structures. Where two headings read alike, the source gives them in different places.

Data set [1] relates to L. donovani MHOM/ET/67/L82 (synonym HU3). The data set is described as follows: Acute mouse infection model (VL). The format is in vivo, BALB/c mice. Conditions: 12.5 mg/kg bid or higher, 5-day dosing. The procedure: (§1) Female 8−10-week-old BALB/c mice were infected with 2 x 10^7 L. donovani MHOM/ET/67/L82 (synonym HU3) or L. infantum MHOM/MA67/ITMAP263 amastigotes on day 0 and dispatched in groups of five individuals. […] Five days following end of treatment, all mice were sacrificed, and parasite burden was determined from smears of liver sections. Efficacy was expressed as the mean percentage load reduction compared to untreated (vehicle-only) control animals. Reference drugs miltefosine and/or AmBisome were used as positive controls and comparators.

In data set [2] the test system is L. infantum MHOM/MA67/ITMAP263. The data set is described as follows: Acute mouse infection model (VL). Conditions: for decrease in the liver parasite burden compared to control animals: 5 consecutive days. It counts as in vivo, BALB/c mice. The protocol:
as §1

Data set [3] in a line: In vitro metabolism, liver microsomes. The format is in vitro ADME, mouse. The protocol: Compounds were spiked into microsomal matrix prepared in 0.1 M pH 7.4 phosphate buffer containing magnesium chloride (final concentration of 3.3 mM), equilibrated for 5-10 min at 37°C. The reaction was initiated with the addition of freshly prepared solution of NADPH (final 1.3 mM). Control samples without co-factor were included for comparison. Aliquots of the reaction mixtures were taken periodically over 60 min and quenched with acetonitrile containing internal standards (metolazone and diazepam). Quenched samples were maintained on ice for approximately 20-30 min, centrifuged (for 5 min) and the supernatant was analyzed by LC-MS.
In vitro intrinsic clearance (CLint, μL/min/mg or μL/min/10^6 cells) values were calculated from the apparent first order degradation rate constant divided by the microsome concentration or the hepatocyte cell number (10^6 viable cells/mL). In vitro CLint values were then divided by the fraction unbound in the in vitro test system (to give CLint,u) and scaled to in vivo values (mL/min/kg) using published physiological scaling factors ([28]). Blood clearance in each species was then calculated using the well-stirred model of hepatic extraction (equation 2) where Q is the hepatic blood flow and fu,blood is calculated from fu,plasma/B:P: [2] PredictedCLblood=Q x fu,blood x CLint,u/Q+fu,blood x CLint,u
Blood clearance values were converted to plasma clearance by multiplying by the B:P.
For orientation: Microsomes from liver hold many membrane-bound enzymes, among them those of drug oxidation.

Data set [4] in a line: In vitro cytotoxicity assay. It counts as cell-based. Conditions: human, HFF human foreskin fibroblasts.
In data set [5] the target is T1, alpha1A Human Adrenoceptor GPCR (Homo sapiens, UniProt P35348).
T1 construct: Eurofins (contract assay)
T1 sequence (P35348 whole entry): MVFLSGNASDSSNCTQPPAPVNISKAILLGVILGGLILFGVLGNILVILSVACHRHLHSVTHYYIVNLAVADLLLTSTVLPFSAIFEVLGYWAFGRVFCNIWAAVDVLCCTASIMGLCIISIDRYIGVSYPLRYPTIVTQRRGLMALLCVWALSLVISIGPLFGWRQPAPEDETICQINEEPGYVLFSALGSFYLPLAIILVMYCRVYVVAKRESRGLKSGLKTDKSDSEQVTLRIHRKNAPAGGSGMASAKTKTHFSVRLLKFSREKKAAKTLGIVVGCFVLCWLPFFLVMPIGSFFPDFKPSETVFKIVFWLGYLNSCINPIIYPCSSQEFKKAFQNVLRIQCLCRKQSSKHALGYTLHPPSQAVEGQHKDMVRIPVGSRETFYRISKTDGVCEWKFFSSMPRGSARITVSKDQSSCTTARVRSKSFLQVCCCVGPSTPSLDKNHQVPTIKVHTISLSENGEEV
The data set is described as follows: α1A antagonism IC50 determination. The format is cell-based. The source says: Listed values represent the percent change relative to the DMSO control activity. When an IC50 had to be determined, eight different concentrations were included. All values are the mean of assay readout duplicates.

Another data set concerns the target T2, CYP1A2 (Homo sapiens, UniProt P05177).
T2 construct: incubation of isoform-specific substrates with human liver microsomes; from tissue; host or cells: human liver microsomes
T2 sequence (P05177 1-516): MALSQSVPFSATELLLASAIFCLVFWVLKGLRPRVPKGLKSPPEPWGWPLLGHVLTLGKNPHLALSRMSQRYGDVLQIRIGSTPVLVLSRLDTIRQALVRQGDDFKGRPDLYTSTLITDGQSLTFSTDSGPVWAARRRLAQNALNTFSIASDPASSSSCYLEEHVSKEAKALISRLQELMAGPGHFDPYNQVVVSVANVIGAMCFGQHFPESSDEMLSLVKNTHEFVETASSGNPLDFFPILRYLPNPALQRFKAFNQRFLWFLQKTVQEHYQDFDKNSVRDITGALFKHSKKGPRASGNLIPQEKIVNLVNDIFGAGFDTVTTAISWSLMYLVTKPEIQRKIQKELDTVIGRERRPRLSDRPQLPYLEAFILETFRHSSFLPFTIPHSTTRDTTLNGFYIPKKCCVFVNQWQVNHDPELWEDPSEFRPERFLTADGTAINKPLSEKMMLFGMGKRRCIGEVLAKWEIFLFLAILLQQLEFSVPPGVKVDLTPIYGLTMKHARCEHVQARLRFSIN
The data set is described as follows: Cytochrome P450 inhibition, human liver microsomes. The format is in vitro ADME. The procedure: (§2) Direct CYP inhibition studies were conducted using conditions described previously ([43]) following incubation of isoform-specific substrates with human liver microsomes. The formation of known metabolites mediated by a specific CYP isoform was monitored. CYP isoform-specific pathways (and positive control inhibitors) included CYP1A2: phenacetin O-deethylation (furafylline), CYP2B6: bupropion hydroxylation (PPP), CYP2C8: amodiaquine deethylation (quercetin) CYP2C9: tolbutamide methylhydroxylation (sulfaphenazole), CYP2C19: (S)-mephenytoin 4’-hydroxylation (ticlopidine), CYP2D6: dextromethorphan O-demethylation (quinidine), and CYP3A: midazolam 1’-hydroxylation and testosterone 6β-hydroxylation (ketoconazole). […] The organic solvent content was maintained at less than 1% (v/v). NADPH was added to initiate the reaction which was then quenched by the addition of acetonitrile containing internal standard at specified times. Concentrations of the isoform-specific metabolites were quantified by LC-MS (Waters Xevo TQD triple quadrupole MS coupled to a Waters Acquity UPLC system) relative to calibration standards prepared in pre-quenched microsomal matrix.
(§3) Time dependent inhibition was assessed using an “IC50 shift” method based on a previous publication ([44]). […] A shift in the IC50 in the presence of NADPH (relative to the absence) was used as an indication of time dependent inhibition. Reference direct and time-dependent inhibitors were included in the assays.

For another data set, the target named is T3, CYP2C8 (Homo sapiens, UniProt P10632).
T3 construct: incubation of isoform-specific substrates with human liver microsomes; from tissue; host or cells: human liver microsomes
T3 sequence (P10632 1-490): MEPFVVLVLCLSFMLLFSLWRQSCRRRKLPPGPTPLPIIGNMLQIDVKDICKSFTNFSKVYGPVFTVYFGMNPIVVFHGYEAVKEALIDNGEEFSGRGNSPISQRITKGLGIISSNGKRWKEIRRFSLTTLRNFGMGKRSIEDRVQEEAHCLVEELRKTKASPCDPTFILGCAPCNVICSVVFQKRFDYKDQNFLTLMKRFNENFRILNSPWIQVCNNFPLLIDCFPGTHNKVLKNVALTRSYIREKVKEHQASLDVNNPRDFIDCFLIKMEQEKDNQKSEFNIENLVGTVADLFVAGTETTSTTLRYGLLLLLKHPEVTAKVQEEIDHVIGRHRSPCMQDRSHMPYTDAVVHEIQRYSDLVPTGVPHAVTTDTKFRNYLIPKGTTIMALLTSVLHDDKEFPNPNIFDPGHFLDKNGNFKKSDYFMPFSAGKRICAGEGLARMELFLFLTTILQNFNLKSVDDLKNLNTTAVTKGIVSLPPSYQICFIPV
The data set is described as follows: Cytochrome P450 inhibition, human liver microsomes. The format is in vitro ADME. The procedure: as §2, §3

In another data set the target is NaV1.5 (Homo sapiens, UniProt Q14524). As to the kind of experiment: Qube NaV1.5.
Sequence of NaV1.5 (Q14524 whole entry): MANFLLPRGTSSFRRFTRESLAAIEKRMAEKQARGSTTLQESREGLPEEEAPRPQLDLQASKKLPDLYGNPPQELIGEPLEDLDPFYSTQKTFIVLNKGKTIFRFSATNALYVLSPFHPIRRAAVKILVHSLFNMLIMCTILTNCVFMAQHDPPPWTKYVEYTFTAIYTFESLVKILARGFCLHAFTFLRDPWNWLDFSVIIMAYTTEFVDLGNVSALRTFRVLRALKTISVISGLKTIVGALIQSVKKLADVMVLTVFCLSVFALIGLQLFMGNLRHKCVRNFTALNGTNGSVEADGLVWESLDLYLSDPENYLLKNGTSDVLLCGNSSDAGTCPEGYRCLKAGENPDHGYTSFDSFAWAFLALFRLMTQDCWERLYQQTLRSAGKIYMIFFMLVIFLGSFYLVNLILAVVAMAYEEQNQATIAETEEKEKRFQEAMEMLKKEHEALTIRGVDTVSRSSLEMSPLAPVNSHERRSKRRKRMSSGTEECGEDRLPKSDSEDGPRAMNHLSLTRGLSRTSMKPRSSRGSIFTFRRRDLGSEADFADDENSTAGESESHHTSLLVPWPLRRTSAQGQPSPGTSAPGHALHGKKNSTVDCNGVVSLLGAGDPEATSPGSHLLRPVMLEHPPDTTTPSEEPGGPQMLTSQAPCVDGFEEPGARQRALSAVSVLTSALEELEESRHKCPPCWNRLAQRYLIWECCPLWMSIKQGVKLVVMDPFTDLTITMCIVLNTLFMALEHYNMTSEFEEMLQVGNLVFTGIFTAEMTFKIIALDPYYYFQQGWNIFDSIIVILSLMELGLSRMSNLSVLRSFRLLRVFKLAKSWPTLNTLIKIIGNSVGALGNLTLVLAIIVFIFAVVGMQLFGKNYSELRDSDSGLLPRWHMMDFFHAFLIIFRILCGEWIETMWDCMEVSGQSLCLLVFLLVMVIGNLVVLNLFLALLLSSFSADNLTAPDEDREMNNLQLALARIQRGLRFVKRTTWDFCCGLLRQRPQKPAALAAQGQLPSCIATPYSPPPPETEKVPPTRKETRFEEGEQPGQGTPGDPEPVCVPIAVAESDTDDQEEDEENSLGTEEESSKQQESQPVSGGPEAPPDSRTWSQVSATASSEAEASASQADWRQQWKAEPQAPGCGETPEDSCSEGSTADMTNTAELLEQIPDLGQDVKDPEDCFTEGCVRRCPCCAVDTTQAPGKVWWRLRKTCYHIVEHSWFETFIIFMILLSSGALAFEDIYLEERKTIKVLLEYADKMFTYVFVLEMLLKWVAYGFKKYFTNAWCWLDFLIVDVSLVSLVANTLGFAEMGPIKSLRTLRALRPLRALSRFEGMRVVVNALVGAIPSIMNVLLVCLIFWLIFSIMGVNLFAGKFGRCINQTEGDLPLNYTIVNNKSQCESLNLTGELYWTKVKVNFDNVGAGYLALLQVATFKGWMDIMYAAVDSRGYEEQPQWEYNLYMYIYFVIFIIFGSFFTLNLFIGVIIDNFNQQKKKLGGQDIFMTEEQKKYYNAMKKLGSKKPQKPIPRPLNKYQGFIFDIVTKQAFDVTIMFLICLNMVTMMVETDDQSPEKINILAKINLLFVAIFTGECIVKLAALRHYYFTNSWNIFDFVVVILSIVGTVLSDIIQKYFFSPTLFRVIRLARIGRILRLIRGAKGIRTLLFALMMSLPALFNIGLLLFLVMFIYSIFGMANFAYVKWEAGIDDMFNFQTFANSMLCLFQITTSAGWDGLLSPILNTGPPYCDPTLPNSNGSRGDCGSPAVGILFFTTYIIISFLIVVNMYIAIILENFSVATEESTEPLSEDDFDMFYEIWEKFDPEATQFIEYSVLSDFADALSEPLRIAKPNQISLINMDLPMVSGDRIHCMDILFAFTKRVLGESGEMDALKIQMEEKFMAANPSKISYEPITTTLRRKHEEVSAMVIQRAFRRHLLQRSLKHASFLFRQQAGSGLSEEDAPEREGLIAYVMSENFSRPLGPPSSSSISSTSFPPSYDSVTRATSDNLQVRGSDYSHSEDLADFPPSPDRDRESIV
The mark [6] stands for this setting: with NADPH preincubation, read-out: Time-dependent inhibition IC50.
Setting [7] is: without NADPH preincubation, read-out: Time-dependent inhibition IC50.

As to `Cc1[nH]c2nc(N)nc(C)c2c1-c1ccc(C#N)c2c1OCO2` [DNDI-6174], the “reduction in liver parasite burden” value in data set [1] is greater than 95%; in data set [2] (12.5 mg/kg bid or higher, 5-day dosing), greater than 95%. Moreover, the “decrease in the liver parasite burden compared to control animals” value in data set [2] (12.5 mg/kg bid) and in data set [2] (25 mg/kg qd) was greater than 98% each time. In addition, in data set [3] (Mouse), the “Microsome predicted in vivo CLplasma” value was 12 mL/min/kg. The “In vitro Microsome CLint” value in data set [3] (Mouse, 2 independent experiments) is given as 13 ± 0.38 µL/min/mg. Further, in data set [3] (mouse, liver microsomes, pH 7.4, Mouse, 2 independent experiments, read-out: In vitro Microsome CLint), the microsomal CLint at 0.5 µM came out at 17 ± 0.59 µL/min/mg. Further, the CC50 in data set [4] was greater than 64 µM. For the same molecule, the IC50 is 12.8 µM in data set [5]; 5.1 µM at CYP1A2 (CYP1A2, read-out: Direct inhibition IC50); 1 µM at CYP1A2 (setting [6]); 3.4 µM on CYP1A2 (setting [7]); greater than 20 µM at CYP2C8 (CYP2C8, read-out: Direct inhibition IC50); 3.2 µM on CYP2C8 (setting [6]). The values for the IC50 on CYP2C8 (setting [7]) and at NaV1.5 were greater than 20 µM and greater than 50 µM, respectively.
